Measured values from patent US20230012368A1 (Hoffmann-La Roche Inc., priority 2018, published 2023).
Structures can show the parent of a compound that is named as a salt.

Each compound was assayed on Acinetobacter baumannii ATCC 17978 (assay: Antimicrobial susceptibility testing: 90% growth inhibitory concentration (IC90) determination). Details: 90% growth inhibitory concentration; Acinetobacter baumannii ATCC17978; Iso-Sensitest broth, OD 600 nm over 16h; read-out: ATCC17978 IC90.
Format: cell-based
How it was run: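 Growth of the Acinetobacter baumannii strain was followed by optical density at 600 nm every 20 minutes for 16h at 35±2° C. Inoculum was ~5×10^(5) CFU/ml in Iso-Sensitest medium, with twofold compound dilutions (e.g. 50 to 0.097 μM final). The 90% inhibitory concentration was derived in log-phase growth.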

Structure (SMILES) | IC90 [nM]
CCc1cc(Nc2nccn3c(-c4ccc(OC)c(F)c4F)cnc23)ccc1C(=O)NCCCCC(=O)NC[C@H]1O[C@H](O[C@@H]2[C@@H](O)[C@H](O[C@H]3O[C@H](CN)[C@@H](O)[C@H](O)[C@H]3O)[C@@H](N)C[C@H]2NC(=O)[C@@H](O)CCN)[C@H](O)[C@@H](N)[C@@H]1O [Example 454, trifluoroacetate] | 970
CCc1cc(Nc2nccn3c(-c4ccc(OC)c(F)c4F)cnc23)ccc1C(=O)NCCN [Example 117, N-(2-aminoethyl)-4-((3-(2,3-difluoro-4-methoxyphenyl)imidazo[1,2-a]pyrazin-8-yl)amino)-2-ethylbenzamide dihydrochloride] | 560
CCc1cc(Nc2nccn3c(-c4ccc(Oc5ncccn5)c(F)c4F)cnc23)ccc1C(=O)NCCNC(=O)[C@H](N)CCCNC(=N)N [Example 437, N-[2-[[(2R)-2-amino-5-guanidino-pentanoyl]amino]ethyl]-4-[[3-(2,3-difluoro-4-pyrimidin-2-yloxy-phenyl)imidazo[1,2-a]pyrazin-8-yl]amino]-2-ethyl-benzamide; formic acid] | 410
CCc1cc(Nc2nccn3c(-c4ccc(OC)c(F)c4F)cnc23)ccc1C(=O)NCCNC(=O)[C@@H](N)CCCNC(=N)NCCCC(=O)O [Example 157, (S)-7-amino-1-(4-((3-(2,3-difluoro-4-methoxyphenyl)imidazo[1,2-a]pyrazin-8-yl)amino)-2-ethylphenyl)-12-imino-1,6-dioxo-2,5,11,13-tetraazaheptadecan-17-oic acid trihydrochloride] | 320
CCc1cc(Nc2nccn3c(-c4ccc(OC)c(F)c4F)cnc23)ccc1C(=O)N[C@H](CN)CO [Example 539, N-[(1R)-1-(aminomethyl)-2-hydroxy-ethyl]-4-[[3-(2,3-difluoro-4-methoxy-phenyl)imidazo[1,2-a]pyrazin-8-yl]amino]-2-ethyl-benzamide; formic acid] | 410

Same assay, conditions: Acinetobacter baumannii, ATCC17978, 16 h, 90% growth inhibitory concentration; Acinetobacter baumannii ATCC17978; Iso-Sensitest broth, OD 600 nm over 16h; read-out: ATCC17978 IC90

IC90 [nM] | Structure (SMILES)
25 | N#CCOc1ccc(-c2cnc3c(Nc4ccc(C(=O)NCCCCCCN)c(Cl)c4)nccn23)c(F)c1F [Example 497, N-(6-aminohexyl)-2-chloro-4-((3-(4-(cyanomethoxy)-2,3-difluorophenyl)imidazo[1,2-a]pyrazin-8-yl)amino)benzamide]
37 | CCc1cc(Nc2nccn3c(-c4ccc(OC)c(F)c4F)cnc23)ccc1C(=O)NCCCCCCN [Example 494, N-(6-aminohexyl)-4-((3-(2,3-difluoro-4-methoxyphenyl)imidazo[1,2-a]pyrazin-8-yl)amino)-2-ethylbenzamide hydrochloride]
150 | CC[C@@]1(O)CN[C@H](C(=O)NCCNC(=O)c2ccc(Nc3nccn4c(-c5ccc(OC)c(F)c5F)cnc34)cc2C)C1 [Example 371, (2S,4S)-N-[2-[[4-[[3-(2,3-difluoro-4-methoxyphenyl)imidazo[1,2-a]pyrazin-8-yl]amino]-2-methylbenzoyl]amino]ethyl]-4-ethyl-4-hydroxypyrrolidine-2-carboxamide]
350 | COc1ccc(-c2cnc3c(Nc4ccc(C(=O)N(C)CCCN5CCNCC5)c(C)c4)nccn23)cc1F [Example 275, 4-[[3-(3-fluoro-4-methoxyphenyl)imidazo[1,2-a]pyrazin-8-yl]amino]-N,2-dimethyl-N-(3-piperazin-1-ylpropyl)benzamide]
4600 | CCc1cc(Nc2nccn3c(-c4ccc(O)c(F)c4F)cnc23)ccc1C(=O)NCCCN [Example 289, N-(3-aminopropyl)-4-[[3-(2,3-difluoro-4-hydroxyphenyl)imidazo[1,2-a]pyrazin-8-yl]amino]-2-ethylbenzamide;hydrochloride]
640 | CCc1cc(Nc2nccn3c(-c4ccc(OC(F)F)cc4)cnc23)ccc1C(=O)NCCN1CCNCC1 [Example 212, 4-[[3-[4-(difluoromethoxy)phenyl]im-idazo[1,2-a]pyrazin-8-yl]amino]-2-ethyl-N-(2-piperazin-1-ylethyl)benzamide;hydrochlo-ride]
1100 | COc1ccc(-c2cnc3c(Nc4ccc(C(=O)N(C)CC5CCOC5)c(C)c4)nccn23)cc1F (stereo not shown) [Example 71, 4-((3-(3-fluoro-4-methoxyphenyl)imidazo [1,2-a]pyrazin-8-yl)amino)-N,2-dimethyl-N-((tetrahydrofuran-3-yl)methyl)benzamide]
150 | CCc1cc(Nc2nccn3c(-c4ccc(OC)c(F)c4F)cnc23)ccc1C(=O)N[C@H](C)CNC(=N)C(C)C [Example 502, 4-[[3-(2,3-difluoro-4-methoxyphenyl)imidazo[1,2-a]pyrazin-8-yl]amino]-2-ethyl-#N!-[(2#R!)-1-(2-methylpropanimidoylamino)propan-2-yl]benzamide]
430 | CCc1cc(Nc2nccn3c(-c4ccc(OC)c(F)c4F)cnc23)ccc1C(=O)NCCNC(=O)NCCCN [Example 335, N-[2-(3-aminopropylcarbamoylamino)ethyl]-4-[[3-(2,3-difluoro-4-methoxyphenyl)imidazo[1,2-a]pyrazin-8-yl]amino]-2-ethylbenzamide]
690 | COc1ccc(-c2cnc3c(Nc4ccc(C(=O)N(C)CCO)c(C)c4)nccn23)cc1 [Example 19, N-(2-hydroxyethyl)-4-((3-(4-methoxyphenyl)imidazo [1,2-a]pyrazin-8-yl)amino)-N,2-dimethylbenzamide]
510 | CCc1cc(Nc2nccn3c(-c4ccc(Oc5ccc(OCCN)cn5)c(F)c4F)cnc23)ccc1C(=O)NC [Example 512, 4-[[3-[4-[[5-(2-aminoethoxy)-2-pyridyl]oxy]-2,3-difluoro-phenyl]imidazo[1,2-a]pyrazin-8-yl]amino]-2-ethyl-N-methyl-benzamide; formic acid]
290 | COc1ccc(-c2cnc3c(Nc4ccc5c(c4)CCN(CCCO)C5=O)nccn23)c(F)c1F [Example 327, 6-[[3-(2,3-difluoro-4-methoxyphenyl)imidazo[1,2-a]pyrazin-8-yl]amino]-2-(3-hydroxypropyl)-3,4-dihydroisoquinolin-1-one]
2600 | COc1ccc(-c2cnc3c(Nc4ccc(C(=O)NCC5(O)CCNCC5)c(C)c4)nccn23)cc1F [Example 285, 4-[[3-(3-fluoro-4-methoxyphenyl)imidazo[1,2-a]pyrazin-8-yl]amino]-N-[(4-hydroxypiperidin-4-yl)methyl]-2-methylbenzamide;2,2,2-trifluoroacetic acid]
770 | COc1ccc(-c2cnc3c(Nc4ccc(C(=O)NCCN5CCNC(=O)C5)c(C)c4)nccn23)cc1F [Example 216, 4-[[3-(3-fluoro-4-methoxyphenyl)imidazo[1,2-a]pyrazin-8-yl]amino]-2-methyl-N-[2-(3-oxopiperazin-1-yl)ethyl]benzamide]
150 | CCc1cc(Nc2nccn3c(-c4ccc(OC)c(F)c4F)cnc23)ccc1C(=O)NCCC(=O)N1CCN[C@H](CO)C1 [Example 160, 4-[[3-(2,3-difluoro-4-methoxy-phenyl)imidazo[1,2-a]pyrazin-8-yl]amino]-2-ethyl-N-[3-[(3S)-3-(hydroxymethyl)piperazin-1-yl]-3-oxo-propyl]benzamide]
360 | CCc1cc(Nc2nccn3c(-c4ccc(Oc5ccccn5)c(F)c4F)cnc23)ccc1C(=O)NCCCC(=O)N1CCN[C@H](CO)C1 [Example 476, 4-[[3-[2,3-difluoro-4-(2-pyridyloxy)phenyl]imidazo [1,2-a]pyrazin-8-yl]amino]-2-ethyl-N-[4-[(3S)-3-(hydroxymethyl)piperazin-1-yl]-4-oxo-butyl]benzamide]
460 | Cc1cc(Nc2nccn3c(-c4ccc(Cl)c(F)c4F)cnc23)ccc1C(=O)NCCCCN [Example 202, N-(4-aminobutyl)-4-[[3-(4-chloro-2,3 difluorophenyl)imidazo[1,2-a]pyrazin-8-yl]amino]-2-methylbenzamide; hydrochlo-ride]
1200 | Cc1cc(Nc2nccn3c(-c4ccc(OC(F)F)cc4)cnc23)ccc1C(=O)NCCN1CCOCC1 [Example 230, 4-[[3-[4-(difluoromethoxy)phenyl]im-idazo[1,2-a]pyrazin-8-yl]amino]-2-methyl-N-(2-morpholin-4-ylethyl)benzamide]
210 | CCc1cc(Nc2nccn3c(-c4ccc(OC)c(F)c4F)cnc23)ccc1C(=O)NCC(O)CO (stereo not shown) [Example 483, 4-((3-(2,3-difluoro-4-methoxyphenyl)imidazo[1,2-a]pyrazin-8-yl)amino)-N-(2,3-dihydroxypropyl)-2-ethylbenzamide]
80 | COc1ccc(-c2cnc3c(Nc4ccc(C(=O)NCCCNC(=O)[C@@H]5C[C@](C)(O)CN5)c(C)c4)nccn23)c(F)c1F [Example 361, (2S,4S)-N-[3-[[4-[[3-(2,3-difluoro-4-methoxyphenyl)imidazo[1,2-a]pyrazin-8-yl]amino]-2-methylbenzoyl]amino]propyl]-4-hydroxy-4-methylpyrrolidine-2-carboxamide]
90 | CCc1cc(Nc2nccn3c(-c4ccc(OC)c(F)c4F)cnc23)ccc1C(=O)NCC1COC1 [Example 291, 4-[[3-(2,3-difluoro-4-methoxyphenyl)imidazo[1,2-a]pyrazin-8-yl]amino]-2-ethyl-N-(oxetan-3-ylmethyl)benzamide]
500 | CCc1cc(Nc2nccn3c(-c4ccc(OC)c(F)c4F)cnc23)ccc1C(=O)NCCNC(=O)CCCNCCCN [Example 564, N-(2-(4-((3-aminopropyl)amino)butanami-do)ethyl)-4-((3-(2,3-difluoro-4-methoxyphenyl)imidazo[1,2-a]pyrazin-8-yl)amino)-2-ethylbenzamide trihydrochloride]
2200 | COC(=O)[C@H](CCCCNC(=O)c1ccc(Nc2nccn3c(-c4ccc(OC(F)F)cc4)cnc23)cc1C)NC(=O)OC(C)(C)C [Example 245, methyl (2S)-6-[[4-[[3-[4-(difluoromethoxy)phenyl]im-idazo[1,2-a]pyrazin-8-yl]amino]-2-methylbenzoyl]amino]-2-[(2-methylpropan-2-yl)oxycarbonylamino]hexa-noate]
